The text below walks through data of US12570671B2 (BRISTOL-MYERS SQUIBB COMPANY, priority 2020, dated 2026).

One assay concerns the target Helios (Homo sapiens, UniProt Q96SW2+Q9UKS7). Description: Helios Cellular Degradation Assay (Helios readout). Format: cell-based. Details: endogenous in cells; host or cells: Jurkat. The settings on record: Jurkat cells, 72 h incubation, Helios-PE antibody staining, flow cytometry; read-out: Helios Jurkat IC50. An outline of the steps:
(§1)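 Jurkat cells (80,000/well, RPMI+10% FBS) were treated with compound for 72 h at 37° C. After fixation and permeabilization they were stained with fluorescent antibodies to Helios, Ikaros and Aiolos. Intracellular protein levels were quantified by flow cytometry.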
(In general: Flow cytometry measures light scatter and fluorescence of single cells or particles in a stream.)

Another assay has as its target Ikaros (Homo sapiens, UniProt Q13422+Q96SW2). In words: Helios Cellular Degradation Assay (Ikaros readout). Type of assay: cell-based. Details: endogenous in cells; host or cells: Jurkat. The settings on record: Jurkat cells, 72 h incubation, Ikaros-Alexa488 antibody staining, flow cytometry; read-out: Ikaros Jurkat IC50. An outline of the steps: as §1

Sequence of Helios (Q9UKS7 whole entry): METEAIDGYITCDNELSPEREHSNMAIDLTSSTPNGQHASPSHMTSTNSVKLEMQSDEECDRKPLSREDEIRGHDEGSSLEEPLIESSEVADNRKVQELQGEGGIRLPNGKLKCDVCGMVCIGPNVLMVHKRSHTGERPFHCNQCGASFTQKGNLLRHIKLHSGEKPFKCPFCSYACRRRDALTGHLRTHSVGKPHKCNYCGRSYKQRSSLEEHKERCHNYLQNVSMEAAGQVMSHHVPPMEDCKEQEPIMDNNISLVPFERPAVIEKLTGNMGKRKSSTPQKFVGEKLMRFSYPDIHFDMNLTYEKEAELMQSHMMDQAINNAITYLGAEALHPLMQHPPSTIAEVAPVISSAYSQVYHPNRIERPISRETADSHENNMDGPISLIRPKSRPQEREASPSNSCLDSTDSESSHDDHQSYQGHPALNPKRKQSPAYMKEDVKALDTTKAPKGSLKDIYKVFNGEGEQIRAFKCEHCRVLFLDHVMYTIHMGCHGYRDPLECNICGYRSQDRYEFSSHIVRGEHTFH
Sequence of Helios (Q96SW2 whole entry): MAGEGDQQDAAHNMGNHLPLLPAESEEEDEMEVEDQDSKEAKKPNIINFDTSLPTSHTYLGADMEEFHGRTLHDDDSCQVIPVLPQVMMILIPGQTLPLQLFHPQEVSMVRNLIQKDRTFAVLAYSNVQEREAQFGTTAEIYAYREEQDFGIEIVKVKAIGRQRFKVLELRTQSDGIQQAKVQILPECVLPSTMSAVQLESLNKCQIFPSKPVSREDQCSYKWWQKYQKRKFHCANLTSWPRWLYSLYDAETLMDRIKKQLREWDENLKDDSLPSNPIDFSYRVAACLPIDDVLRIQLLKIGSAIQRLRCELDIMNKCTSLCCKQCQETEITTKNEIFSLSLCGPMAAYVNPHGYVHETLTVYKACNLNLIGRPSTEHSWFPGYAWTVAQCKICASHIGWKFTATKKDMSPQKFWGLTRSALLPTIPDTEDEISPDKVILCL
Sequence of Helios (Q16531 whole entry partner): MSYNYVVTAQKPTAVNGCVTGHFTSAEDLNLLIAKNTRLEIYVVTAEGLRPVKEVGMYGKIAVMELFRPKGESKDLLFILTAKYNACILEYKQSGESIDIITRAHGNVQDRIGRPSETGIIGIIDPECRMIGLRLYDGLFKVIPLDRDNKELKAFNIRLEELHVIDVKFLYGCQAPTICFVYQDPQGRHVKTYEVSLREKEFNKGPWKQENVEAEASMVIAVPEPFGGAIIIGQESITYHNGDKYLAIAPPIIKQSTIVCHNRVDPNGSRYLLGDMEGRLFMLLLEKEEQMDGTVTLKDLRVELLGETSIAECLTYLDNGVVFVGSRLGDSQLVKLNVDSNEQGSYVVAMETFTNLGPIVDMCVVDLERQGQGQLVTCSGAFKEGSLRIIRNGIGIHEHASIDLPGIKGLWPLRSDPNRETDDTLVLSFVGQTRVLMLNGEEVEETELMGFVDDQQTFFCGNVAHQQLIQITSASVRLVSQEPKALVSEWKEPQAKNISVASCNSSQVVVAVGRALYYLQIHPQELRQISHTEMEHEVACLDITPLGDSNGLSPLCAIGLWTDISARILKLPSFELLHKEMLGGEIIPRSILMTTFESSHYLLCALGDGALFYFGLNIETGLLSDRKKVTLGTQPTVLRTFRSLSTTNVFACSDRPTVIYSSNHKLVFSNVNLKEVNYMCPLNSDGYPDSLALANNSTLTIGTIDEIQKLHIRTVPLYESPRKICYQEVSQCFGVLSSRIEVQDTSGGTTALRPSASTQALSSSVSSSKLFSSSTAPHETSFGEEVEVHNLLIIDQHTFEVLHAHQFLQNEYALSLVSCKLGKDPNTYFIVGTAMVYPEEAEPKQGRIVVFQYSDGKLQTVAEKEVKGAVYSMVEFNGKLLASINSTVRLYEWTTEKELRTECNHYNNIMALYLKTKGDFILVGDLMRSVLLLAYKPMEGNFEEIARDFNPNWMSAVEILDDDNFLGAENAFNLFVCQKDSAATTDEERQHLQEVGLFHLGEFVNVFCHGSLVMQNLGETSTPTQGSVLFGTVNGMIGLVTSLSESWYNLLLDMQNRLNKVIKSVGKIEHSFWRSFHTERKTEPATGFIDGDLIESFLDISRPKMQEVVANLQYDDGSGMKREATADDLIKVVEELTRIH
Sequence of Ikaros (Q13422 whole entry): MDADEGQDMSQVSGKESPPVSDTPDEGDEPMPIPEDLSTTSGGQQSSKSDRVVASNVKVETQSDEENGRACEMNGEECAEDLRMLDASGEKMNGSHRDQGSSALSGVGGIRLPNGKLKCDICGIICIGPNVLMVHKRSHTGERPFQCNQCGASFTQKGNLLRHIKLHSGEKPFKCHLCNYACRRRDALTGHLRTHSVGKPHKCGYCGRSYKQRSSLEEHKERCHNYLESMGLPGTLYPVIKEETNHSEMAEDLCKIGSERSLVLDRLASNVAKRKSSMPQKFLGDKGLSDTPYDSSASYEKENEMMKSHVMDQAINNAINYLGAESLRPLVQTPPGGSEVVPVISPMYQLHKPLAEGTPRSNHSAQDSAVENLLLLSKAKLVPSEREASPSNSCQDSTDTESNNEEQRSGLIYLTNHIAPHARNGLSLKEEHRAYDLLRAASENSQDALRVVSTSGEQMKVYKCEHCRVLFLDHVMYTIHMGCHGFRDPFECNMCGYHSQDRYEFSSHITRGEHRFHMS
Sequence of Ikaros (Q96SW2 whole entry): as the sequence (Q96SW2 whole entry) above
Sequence of Ikaros (Q16531 whole entry partner): as the sequence (Q16531 whole entry partner) above

As to `COc1ccc2c(-c3ccc4c(c3)CN(C3CCC(=O)NC3=O)C4=O)nccc2c1` (stereo not drawn) [Example 17, 3-[5-(6-methoxyisoquinolin-1-yl)-1-oxo-2,3-dihydro-1H-isoindol-2-yl]piperidine-2,6-dione], the DC50 on Helios worked out at 14 nM; on Ikaros, 96 nM.
As to `CCOC(=O)c1nc2ccccc2nc1-c1ccc2c(c1)CN(C1CCC(=O)NC1=O)C2=O` (stereo not drawn) [Example 30, ethyl 3-[2-(2,6-dioxopiperidin-3-yl)-1-oxo-2,3-dihydro-1H-isoindol-5-yl]quinoxaline-2-carboxylate], the DC50 on Helios and at Ikaros was over 20000 nM throughout.
For the compound `Nc1c(-c2ccc3c(c2)CN(C2CCC(=O)NC2=O)C3=O)ncc2ccccc12` (stereo not drawn) [Example 2, 3-(5-(4-Aminoisoquinolin-3-yl)-1-oxoisoindolin-2-yl)piperidine-2,6-dione], the DC50 on Helios was 370 nM; at Ikaros it was 13700 nM.
Consider `CCN(CC)c1nc(-c2ccc3c(c2)CN(C2CCC(=O)NC2=O)C3=O)nc2ccc(Cl)cc12` (stereo not drawn) [Example 15, 3-{5-[6-chloro-4-(diethylamino)quinazolin-2-yl]-1-oxo-2,3-dihydro-1H-isoindol-2-yl}piperidine-2,6-dione], for which the DC50 at Helios and on Ikaros was over 20000 nM in each case.
`N#Cc1ccc(-c2ccc3c(c2)CN(C2CCC(=O)NC2=O)C3=O)nn1` (stereo not drawn) [Example 77, 6-[2-(2,6-Dioxopiperidin-3-yl)-1-oxo-2,3-dihydro-1H-isoindol-5-yl]pyridazine-3-carbonitrile]: the DC50 on Helios and on Ikaros was over 20000 nM each time.
As for `COc1cccc(-c2ccc3c(c2)CN(C2CCC(=O)NC2=O)C3=O)n1` (stereo not drawn) [Example 155, 3-[5-(6-Methoxypyridin-2-yl)-1-oxo-2,3-dihydro-1H-isoindol-2-yl]piperidine-2,6-dione], the results for the DC50 at Helios and on Ikaros were 5330 nM and at least 20000 nM, respectively.
As for `Nc1nc(-c2ccc3c(c2)CN(C2CCC(=O)NC2=O)C3=O)cc2[nH]ccc(=O)c12` (stereo not drawn) [Example 47, 3-[5-(5-Amino-4-oxo-1,4-dihydro-1,6-naphthyridin-7-yl)-1-oxo-2,3-dihydro-1H-isoindol-2-yl]piperidine-2,6-dione], the values for the DC50 at Helios and on Ikaros were 220 nM and over 20000 nM, respectively.
The like results for `CN1CCc2nc(-c3ccc4c(c3)CN(C3CCC(=O)NC3=O)C4=O)ccc2C1=O` (stereo not drawn) [Example 92, 3-(5-(6-methyl-5-oxo-5,6,7,8-tetrahydro-1,6-naphthyridin-2-yl)-1-oxoisoindolin-2-yl)piperidine-2,6-dione] were, in that order, 1500 nM and at least 20000 nM.
Turning to `CCOc1c(-c2ccc3c(c2)CN(C2CCC(=O)NC2=O)C3=O)ncc2ccccc12` (stereo not drawn) [Example 85, 3-(5-(4-ethoxyisoquinolin-3-yl)-1-oxoisoindolin-2-yl)piperidine-2,6-dione], the DC50 at Helios came to 10 nM; on Ikaros, 1820 nM.
On the same counts, the results for `O=C1CCC(N2Cc3cc(-c4nccc5c4ccn5Cc4ccccc4)ccc3C2=O)C(=O)N1` (stereo not drawn) [Example 161, 3-(5-(1-benzyl-1H-pyrrolo[3,2-c]pyridin-4-yl)-1-oxoisoindolin-2-yl)piperidine-2,6-dione] are 20 nM and 90 nM.
On the same counts, the results for `O=C1CCC(N2Cc3cc(-c4ncnc5c4oc4ccccc45)ccc3C2=O)C(=O)N1` (stereo not drawn) [Example 3, 3-(5-{8-oxa-3,5-diazatricyclo[7.4.0.0^2,7]trideca-1(9),2,4,6,10,12-hexaen-6-yl}-1-oxo-2,3-dihydro-1H-isoindol-2-yl)piperidine-2,6-dione] are 36 nM and over 20000 nM.
On to `Nc1nc(-c2ccc3c(c2)CN(C2CCC(=O)NC2=O)C3=O)cc2c1CCCC2` (stereo not drawn) [Example 150, 3-(5-(1-amino-5,6,7,8-tetrahydroisoquinolin-3-yl)-1-oxoisoindolin-2-yl)piperidine-2,6-dione], for which the DC50 on Helios was 32 nM; at Ikaros it was at least 10000 nM.
With `O=C1CCC(N2Cc3cc(-c4ccc5ccccc5n4)ccc3C2=O)C(=O)N1` (stereo not drawn) [Example 1, 3-(1-Oxo-5-(quinolin-2-yl)isoindolin-2-yl)piperidine-2,6-dione], the DC50 at Helios was 34 nM; at Ikaros it was over 20000 nM.
As for `CC(=O)O[C@H]1CCOc2nc(-c3ccc4c(c3)CN([C@H]3CCC(=O)NC3=O)C4=O)ccc21` [Example 127, (4S)-7-{2-[(3S)-2,6-dioxopiperidin-3-yl]-1-oxo-2,3-dihydro-1H-isoindol-5-yl}-2H,3H,4H-pyrano[2,3-b]pyridin-4-yl acetate], the results for the DC50 at Helios and on Ikaros were 7460 nM and at least 20000 nM, respectively.
As for `O=C1CCC(N2Cc3cc(-c4cc(-c5ccccc5)c5ccccc5n4)ccc3C2=O)C(=O)N1` (stereo not drawn) [Example 13, 3-[1-oxo-5-(4-phenylquinolin-2-yl)-2,3-dihydro-1H-isoindol-2-yl]piperidine-2,6-dione], the DC50 was 750 nM on Helios and over 20000 nM at Ikaros.
Consider `O=C1CCC(N2Cc3cc(-c4ccc5c(n4)NCCCC5)ccc3C2=O)C(=O)N1` (stereo not drawn) [Example 136, 3-(1-oxo-5-{5H,6H,7H,8H,9H-pyrido[2,3-b]azepin-2-yl}-2,3-dihydro-1H-isoindol-2-yl) piperidine-2,6-dione], for which the values for the DC50 at Helios and at Ikaros were 290 nM and at least 10000 nM, respectively.
`Nc1cc(C(F)(F)F)cc(-c2ccc3c(c2)CN(C2CCC(=O)NC2=O)C3=O)n1` (stereo not drawn) [Example 120, 3-(5-(6-amino-4-(trifluoromethyl)pyridin-2-yl)-1-oxoisoindolin-2-yl)piperidine-2,6-dione]: the values for the DC50 on Helios and on Ikaros were 70 nM and at least 10000 nM, respectively.
Take `COc1cccnc1-c1ccc2c(c1)CN(C1CCC(=O)NC1=O)C2=O` (stereo not drawn) [Example 104, 3-(5-(3-methoxypyridin-2-yl)-1-oxoisoindolin-2-yl)piperidine-2,6-dione]: the DC50 at Helios was 130 nM; on Ikaros, at least 20000 nM.
On the same counts, the results for `O=C1CCC(N2Cc3cc(-c4ccc5ncccc5n4)ccc3C2=O)C(=O)N1` (stereo not drawn) [Example 21, 3-[5-(1,5-naphthyridin-2-yl)-1-oxo-2,3-dihydro-1H-isoindol-2-yl]piperidine-2,6-dione] are 37 nM and over 20000 nM.
For the compound `O=C1CCC(N2Cc3cc(-c4nccc(-c5ccccn5)n4)ccc3C2=O)C(=O)N1` (stereo not drawn) [Example 75, 3-(1-oxo-5-(4-(pyridin-2-yl)pyrimidin-2-yl)isoindolin-2-yl)piperidine-2,6-dione], the DC50 is 1200 nM on Helios and over 20000 nM on Ikaros.
In the case of `CNc1cc(C)cc(-c2ccc3c(c2)CN(C2CCC(=O)NC2=O)C3=O)n1` (stereo not drawn) [Example 187, 3-(5-(4-Methyl-6-(methylamino)pyridin-2-yl)-1-oxoisoindolin-2-yl)piperidine-2,6-dione], the DC50 at Helios was 10 nM; on Ikaros it was at least 10000 nM.
On the same counts, the results for `NC(=O)c1cnc(-c2ccc3c(c2)CN(C2CCC(=O)NC2=O)C3=O)nc1N` (stereo not drawn) [Example 81, 4-amino-2-[2-(2,6-dioxopiperidin-3-yl)-1-oxo-2,3-dihydro-1H-isoindol-5-yl]pyrimidine-5-carboxamide] are 3900 nM and over 20000 nM.
The like results for `CC(=O)Nc1ccc2c(-c3ccc4c(c3)CN(C3CCC(=O)NC3=O)C4=O)nccc2c1` (stereo not drawn) [Example 134, N-{1-[2-(2,6-dioxopiperidin-3-yl)-1-oxo-2,3-dihydro-1H-isoindol-5-yl]isoquinolin-6-yl}acetamide] were, in that order, 100 nM and at least 20000 nM.
On the same counts, the results for `CC(C)c1cc(-c2ccc3c(c2)CN(C2CCC(=O)NC2=O)C3=O)nc(N)c1C#N` (stereo not drawn) [Example 178, 2-amino-6-(2-(2,6-dioxopiperidin-3-yl)-1-oxoisoindolin-5-yl)-4-isopropylnicotinonitrile] are 70 nM and at least 10000 nM.
With `N#Cc1nc(-c2ccc3c(c2)CN([C@H]2CCC(=O)NC2=O)C3=O)cc2ccccc12` [Example 125, 3-{2-[(3 S)-2,6-dioxopiperidin-3-yl]-1-oxo-2,3-dihydro-1H-isoindol-5-yl}isoquinoline-1-carbonitrile], the DC50 at Helios is 40 nM; on Ikaros, at least 20000 nM.
As to `C[Si](C)(C)CCn1nnc2c(-c3ccc4c(c3)CN(C3CCC(=O)NC3=O)C4=O)nc(N)nc21` (stereo not drawn) [Example 42, 3-(5-{5-amino-3-[2-(trimethylsilyl)ethyl]-3H-[1,2,3]triazolo[4,5-d]pyrimidin-7-yl}-1-oxo-2,3-dihydro-1H-isoindol-2-yl)piperidine-2,6-dione], the DC50 on Helios is 110 nM; on Ikaros it was 3600 nM.
The like results for `Cc1cc(=O)c2ccc(-c3ccc4c(c3)CN(C3CCC(=O)NC3=O)C4=O)nc2o1` (stereo not drawn) [Example 62, 3-(5-{2-methyl-4-oxo-4H-pyrano[2,3-b]pyridin-7-yl}-1-oxo-2,3-dihydro-1H-isoindol-2-yl)piperidine-2,6-dione] were, in that order, over 20000 nM and over 20000 nM.
On the same counts, the results for `O=C1CC[C@H](N2Cc3cc(-c4ccc5cccnc5n4)ccc3C2=O)C(=O)N1` [Example 122, (3S)-3-[5-(1,8-naphthyridin-2-yl)-1-oxo-2,3-dihydro-1H-isoindol-2-yl]piperidine-2,6-dione] are 50 nM and at least 20000 nM.
On the same counts, the results for `COc1nc(-c2ccc3c(c2)CN(C2CCC(=O)NC2=O)C3=O)cc2ccccc12` (stereo not drawn) [Example 156, 3-[5-(1-Methoxyisoquinolin-3-yl)-1-oxo-2,3-dihydro-1H-isoindol-2-yl]piperidine-2,6-dione] are 500 nM and at least 20000 nM.
Regarding `O=C1CCC(N2Cc3cc(-c4cc5c(cn4)OCCN5)ccc3C2=O)C(=O)N1` (stereo not drawn) [Example 87, 3-(5-(2,3-dihydro-1H-pyrido[3,4-b][1,4]oxazin-7-yl)-1-oxoisoindolin-2-yl)piperidine-2,6-dione], the DC50 at Helios was 100 nM; on Ikaros it was at least 20000 nM.
